The results in this text go back to patent publication EP0552417B1, “Cyclic peptides and use thereof” (priority 1991, dated 1993).

Non-standard residues stand in square brackets, D forms with d. Residues, ends and D or L forms follow the SMILES beside them. *: point of attachment. 1Nal = N[C@@H](Cc1cccc2ccccc12)C(=O)O; Bn = c1ccc(C*)cc1

The subject of one assay is ETB. The experiment in a line: ETB radio receptor assay *2, 125I-endothelin-1, guinea pig kidney crude membrane fraction. It counts as binding, Guinea pigs. Particulars: relative activity, 37 °C, 90 minutes. In short, it runs like this:
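Radioligand binding used crude guinea pig kidney membranes (2.1 µg protein) with 740 Bq 125I-endothelin-1. Incubation was 90 min at 37 °C in 50 mM Tris-HCl pH 7.4, 0.1 mM PMSF, 1 mM EDTA, 0.2% BSA. Bound radioactivity was collected by GF/B filtration and measured by gamma counting.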

In a further assay the target is T1, NK2 receptor (Bos taurus, UniProt P05363).
T1 construct: The membrane fraction containing the receptor was prepared from the inner wall of the bovine third stomach; tissue Kyoto Chuo Chikusan Fukuseibutsu Oroshi Kyoukai (tissue); host or cells: inner wall of bovine third stomach, membrane fraction
T1 sequence (P05363 1-384): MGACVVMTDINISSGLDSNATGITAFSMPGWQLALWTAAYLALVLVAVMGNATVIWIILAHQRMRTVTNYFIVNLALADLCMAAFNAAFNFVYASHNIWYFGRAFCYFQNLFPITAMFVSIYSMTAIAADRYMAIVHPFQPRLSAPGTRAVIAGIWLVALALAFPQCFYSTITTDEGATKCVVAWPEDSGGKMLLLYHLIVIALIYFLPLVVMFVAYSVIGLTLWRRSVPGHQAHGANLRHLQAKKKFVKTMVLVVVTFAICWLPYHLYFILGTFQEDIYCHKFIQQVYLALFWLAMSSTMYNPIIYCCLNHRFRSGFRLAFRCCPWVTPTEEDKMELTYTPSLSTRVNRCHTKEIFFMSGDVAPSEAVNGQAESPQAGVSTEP
The experiment in a line: Assay of affinity for receptor (3): binding inhibiting activity on NK2 receptor, 125I-neurokinin A, membrane fraction of bovine third stomach inner wall. The note with it: 125I-NKA, 25°C, 3 hours. The procedure: Assay of Affinity for Receptor (3) ... Binding Inhibiting Activity on NK2 Receptor
The method of Paul L. M. Van Giersbergen et al. [Proc. Natl. Acad. Sci. U.S.A., 88, 1661 (1991) was modified for this assay. The membrane fraction containing the receptor was prepared from the inner wall of the bovine third stomach (purchased from Kyoto Chuo Chikusan Fukuseibutsu Oroshi Kyoukai).
The inner wall of the bovine third stomach stored at-80°C was cut to 1 cm X 1 cm or less, and disrupted in 3 liters/kg of 50 mM Tris-HCl buffer (pH 7.4) supplemented with 120 mM sodium chloride, 5 mM potassium chloride, 0.02% BSA and 5% sucrose, using a polytron homogenizer (Kinematika, Germany). Then, the disrupted product was centrifuged at 1,000 X g for 10 minutes. The supernatant was further centrifuged at 45,000 X g for 20 minutes. The precipitate was suspended in 200 ml of 50 mM Tris-HCl buffer (pH 7.4) supplemented with 300 mM potassium chloride, 10 mM ethylenediaminetetraacetic acid, 0.1 mM phenylmethylsulfonium fluoride and 0.02% BSA, and gently stirred under ice cooling for 60 minutes. The suspension was centrifuged at 45,000 X g for 20 minutes. The precipitate was washed with 200 ml of 50 mM Tris-HCl buffer (pH 7.4), and stored in the frozen state at -40°C as a receptor sample.
This sample was suspended in a reaction buffer solution [50 mM Tris-HCl buffer (pH 7.4), 0.02% bovine serum albumin and 4 mM manganese chloride] so as to give a protein concentration of 0.7 mg/ml, and 100 µl thereof was used for reaction. A test sample and ^125I-NKA (0.61 KBq, ^125I-neurokinin A, 81.4 TBq/mmol, Du Pont/NEN Research Products, U.S.A.) were also added, and reacted in 0.2 ml of the reaction buffer solution at 25°C for 3 hours. The reaction mixture was rapidly filtered through a glass filter (GF/B, Whatman, U.S.A.) using a cell harvester (Type 290PHD, Cambridge Technology Inc.) to terminate the reaction, and washed 3 times with 250 µl of 50 mM Tris-HCl buffer (pH 7.4) supplemented with 0.02% bovine serum albumin. The radioactivity left on the filter was measured with a gamma-ray counter. Results are shown in Table 1 as the binding inhibiting activity (IC50, unit: µM) on the NK2 receptor.

A word on the IC50: it is the point on the concentration scale where inhibition reaches its midpoint. Take `CC(C)C[C@@H]1NC(=O)[C@@H](CC(C)C)NC(=O)[C@H](CC(=O)O)NC(=O)[C@H](Cc2c[nH]c3ccccc23)NC(=O)[C@@H](CC(=O)O)NC(=O)[C@@H](Cc2c[nH]c3ccccc23)NC1=O` [Example 8, cyclo[-D-Asp-Trp-Asp-D-Leu-Leu-D-Trp-]] (cyclo(D[dL]L[dW][dD]W)): in the assay on ETB, the “Binding Activity on ET Receptor (R. act.) ETB*2” value (“Binding Activity on ET Receptor” below) was found to be 100. For the same compound, on NK2 receptor, the IC50 came out at 6.4 µM.

Turning to `CC(C)C[C@@H]1NC(=O)[C@@H](CC(C)C)NC(=O)[C@H](CC(=O)O)NC(=O)[C@H](Cc2cccc3ccccc23)NC(=O)[C@@H](CC(=O)O)NC(=O)[C@@H](Cc2c[nH]c3ccccc23)NC1=O` [Example 23, Cyclo[-D-Asp-Nal(1)-Asp-D-Leu-Leu-D-Trp-]] (cyclo([1Nal]D[dL]L[dW][dD])), the “Binding Activity on ET Receptor” value in the assay on ETB worked out at 7.7. For the same compound, the IC50 on NK2 receptor came out at 2.1 µM.

As to `CC(C)C[C@@H]1NC(=O)[C@@H](CC(C)C)NC(=O)[C@H](CCC(=O)O)NC(=O)[C@H](Cc2c[nH]c3ccccc23)NC(=O)[C@@H](CC(=O)O)NC(=O)[C@@H](Cc2c[nH]c3ccccc23)NC1=O` [Example 34, Cyclo[-D-Asp-Trp-Glu-D-Leu-Leu-D-Trp-]] (cyclo(E[dL]L[dW][dD]W)), in the assay on ETB, the “Binding Activity on ET Receptor” value worked out at 44. The compound further gave a 50% inhibitory concentration (IC50) on NK2 receptor of 7.4 µM.

For `CC(C)C[C@@H]1NC(=O)[C@H](Cc2c[nH]c3ccccc23)NC(=O)[C@@H](CC(=O)O)NC(=O)[C@@H](Cc2c[nH]c3ccccc23)NC(=O)[C@H](CC(C)C)NC(=O)[C@@H](CC(C)C)NC1=O` [Example 35, Cyclo[-D-Asp-Trp-Leu-D-Leu-Leu-D-Trp-]] (cyclo(L[dL]L[dW][dD]W)), the “Binding Activity on ET Receptor” value with ETB was 24. In addition, the 50% inhibitory concentration (IC50) at NK2 receptor turned out to be 0.052 µM.

On to `CC(C)C[C@@H]1NC(=O)[C@@H](CC(C)C)NC(=O)[C@@H]2CCCN2C(=O)[C@H](Cc2c[nH]c3ccccc23)NC(=O)[C@@H](CC(=O)O)NC(=O)[C@@H](Cc2c[nH]c3ccccc23)NC1=O` [Example 36, Cyclo[-D-Asp-Trp-Pro-D-Leu-Leu-D-Trp-]] (cyclo(L[dW][dD]WP[dL])), for which the “Binding Activity on ET Receptor” value with ETB is reported as 42. Besides, the IC50 on NK2 receptor came out at 1.1 µM.

As to `CC(C)C[C@@H]1NC(=O)[C@@H](CC(C)C)NC(=O)[C@H](CO)NC(=O)[C@H](Cc2c[nH]c3ccccc23)NC(=O)[C@@H](CC(=O)O)NC(=O)[C@@H](Cc2c[nH]c3ccccc23)NC1=O` [Example 37, Cyclo[-D-Asp-Trp-Ser-D-Leu-Leu-D-Trp-]] (cyclo(L[dW][dD]WS[dL])), in the assay on ETB, the “Binding Activity on ET Receptor” value is given as 18. The compound further came in with a half-inhibitory concentration (IC50) on NK2 receptor of 0.28 µM.

Take `CC(C)C[C@@H]1NC(=O)[C@@H](CC(C)C)NC(=O)[C@H](COCc2ccccc2)NC(=O)[C@H](Cc2c[nH]c3ccccc23)NC(=O)[C@@H](CC(=O)O)NC(=O)[C@@H](Cc2c[nH]c3ccccc23)NC1=O` [Example 38, Cyclo[-D-Asp-Trp-Ser(Bzl)-D-Leu-Leu-D-Trp-]] (cyclo(L[dW][dD]WS(Bn)[dL])): the “Binding Activity on ET Receptor” value in the assay on ETB stood at 170. At NK2 receptor, the half-inhibitory concentration (IC50) is 0.07 µM.
